One test has as its system CHO cells. As to the kind of experiment: Live cell tRNA:tRNA FRET imaging before and after cycloheximide treatment. It is filed as cell-based. Conditions: CHO cells transfected with rhodamine 110 (donor) and Cy3 (acceptor) labeled bulk yeast tRNA; same cells imaged prior to and following treatment. The protocol: (§1) Fluorescent labeled tRNA were then introduced into live HEK-293, HeLa and CHO cells, employing a transfection protocol. One day prior to the transfection experiment, the cells were seeded on fibronectin-coated glass slides in a 24-well plate. On the following day, the growth medium was removed and 0.5 ml of fresh medium was added to each well containing the sub-confluent monolayers. 10 minutes later, 0.1 ml of the labeled-tRNA mixed with the transfection reagent and serum-free media were added to each well. The plate was incubated at 37° C. in a 5% CO2 incubator for 6-8 hr, followed by fixation with 4% paraformaldehyde for 20 min and mounting using fluorescent mounting medium. The fixed cells on glass slides were then visualized employing a spinning disk confocal microscope.
(§2) In order to determine the imaging parameters to be employed in the following experiments, including the degree of non-specific signal stemming from the cross-stimulation of different fluorophores, cells were transfected with donor only and with acceptor only, and imaged in the exact conditions employed for the FRET measurement. The calibration coefficients for computing the NFret (corrected FRET) image were NFret=FRET−0.011*donor−0.004*acceptor. […]

Another test has as its system HEK cells. The description is as above. Type of test: cell-based. The settings on record: HEK cells transfected with rhodamine 110 (donor) and Cy3 (acceptor) labeled bulk yeast tRNA; same cells imaged prior to and following treatment. The protocol: as §1, §2
Test [1] has as its system premature termination codons (PTC). The settings on record: genetic disorders with premature termination codons; Welch E M et al, Nature 2007; cited from earlier work.

For `C[C@@H]1C[C@@H]([C@H](O)CC2CC(=O)NC(=O)C2)C(=O)[C@@H](C)C1` [cycloheximide], the FRET signal intensity result in the test with CHO cells and with HEK cells was “increase in FRET signal intensity” each time.

Take `O=C(O)c1cccc(-c2noc(-c3ccccc3F)n2)c1` [PTC124]: in test [1], the “amount of required protein produced” value was 1-5 % of normal concentrations.

Source of the values: patent publication US9034576B2, “Systems and methods for measuring translation of target proteins in cells” (ANIMA CELL METROLOGY INC., priority 2009, dated 2015).
